Assay results taken from ChEMBL document CHEMBL1201862, “PubChem BioAssay data set” (2004).
Activity calls are given as the source filed them.

Key:
[1] = molecular target: 5-hydroxytryptamine receptor 1A (Homo sapiens, UniProt P08908); type: functional
[2] = molecular target: T1, Tyrosine-protein phosphatase non-receptor type 7 (Homo sapiens, UniProt P35236); assay: HePTP tyrosine phosphatase activity blockers – biochemical, absorbance, leukemia target, primary screen (AID 521); type: functional
T1 sequence (P35236 whole entry): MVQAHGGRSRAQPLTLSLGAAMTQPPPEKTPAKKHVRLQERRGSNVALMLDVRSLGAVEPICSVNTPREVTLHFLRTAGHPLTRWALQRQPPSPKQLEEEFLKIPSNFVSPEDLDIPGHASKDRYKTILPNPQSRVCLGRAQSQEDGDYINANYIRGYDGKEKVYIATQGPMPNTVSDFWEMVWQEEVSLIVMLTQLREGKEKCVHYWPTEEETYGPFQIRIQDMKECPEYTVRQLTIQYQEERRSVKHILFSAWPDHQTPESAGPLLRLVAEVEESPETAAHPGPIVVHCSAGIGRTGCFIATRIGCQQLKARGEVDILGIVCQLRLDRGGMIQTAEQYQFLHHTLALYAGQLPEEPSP

[3] = molecular target: Eukaryotic translation initiation factor 4E (Mus musculus, UniProt P63073); assay: blockers of eIF4G binding by eIF4E – biochemical, TR-FRET, dose response (AID 855); type: functional;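 also: potency for disrupting eIF4E binding to eIF4GI seen as loss of FRET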
Sequence of Eukaryotic translation initiation factor 4E (P63073 whole entry): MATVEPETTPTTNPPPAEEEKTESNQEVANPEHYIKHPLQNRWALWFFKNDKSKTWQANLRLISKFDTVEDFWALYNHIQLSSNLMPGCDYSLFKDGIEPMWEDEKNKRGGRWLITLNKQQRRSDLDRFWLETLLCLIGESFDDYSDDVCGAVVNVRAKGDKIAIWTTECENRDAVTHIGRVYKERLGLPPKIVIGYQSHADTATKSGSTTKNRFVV

Troponin, cardiac muscle = Troponin, cardiac muscle (Homo sapiens, UniProt P19429+P45379+P63316); assay: Fluorescence-based biochemical high throughput dose response assay for activators of the calcium sensitivity of cardiac Regulated Thin Filaments (RTF). [Related pubchem assays (depositor defined):AID493008, AID493018, AID504382, AID504383]; type: protein-complex assay
Vero = assay: viability loss in Vero cells – cell-based, plate reader, cherry-pick samples, cytotoxicity control, dose response (AID 687020); type: functional; conditions: Chlorocebus sabaeus
[4] = molecular target: Matrix metalloproteinase-14 (Homo sapiens, UniProt P50281); assay: Dose Response confirmation of uHTS hits for a small molecule inhibitors of MT1-MMP activation in a fluorescence assay set 2.; type: functional
[5] = molecular target: T2, Methionyl-tRNA synthetase, putative (Trypanosoma brucei brucei, UniProt Q38C91); type: functional, Trypanosoma brucei brucei strain 927/4 GUTat10.1
T2 sequence (Q38C91 whole entry): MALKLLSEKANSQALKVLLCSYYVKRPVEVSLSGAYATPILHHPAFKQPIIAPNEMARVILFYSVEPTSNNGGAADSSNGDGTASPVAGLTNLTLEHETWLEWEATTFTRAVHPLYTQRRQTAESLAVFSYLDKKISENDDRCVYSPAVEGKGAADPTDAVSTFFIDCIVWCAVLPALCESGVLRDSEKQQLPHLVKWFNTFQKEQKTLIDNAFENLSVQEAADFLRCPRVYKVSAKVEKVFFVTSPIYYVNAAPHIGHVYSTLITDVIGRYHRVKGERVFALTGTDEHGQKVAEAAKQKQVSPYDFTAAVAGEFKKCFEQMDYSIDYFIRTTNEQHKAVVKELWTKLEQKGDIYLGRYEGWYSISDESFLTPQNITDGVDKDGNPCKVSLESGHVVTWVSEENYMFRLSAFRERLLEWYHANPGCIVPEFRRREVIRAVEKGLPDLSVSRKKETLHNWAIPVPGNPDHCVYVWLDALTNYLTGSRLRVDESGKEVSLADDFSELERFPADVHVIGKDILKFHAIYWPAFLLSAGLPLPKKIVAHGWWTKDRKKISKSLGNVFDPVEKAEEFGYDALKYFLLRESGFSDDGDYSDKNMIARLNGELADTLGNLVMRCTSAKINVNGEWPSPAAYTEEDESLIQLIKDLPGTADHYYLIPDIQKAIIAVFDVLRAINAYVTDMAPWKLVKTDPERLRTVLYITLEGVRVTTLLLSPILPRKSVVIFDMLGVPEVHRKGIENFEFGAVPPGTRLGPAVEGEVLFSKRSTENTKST

[6] = molecular target: T2, Methionyl-tRNA synthetase, putative; type: functional, Trypanosoma brucei brucei strain 927/4 GUTat10.1; remark: listed apart in the source
Transthyretin = Transthyretin (Homo sapiens, UniProt P02766); assay: Luminescence-based cell-based high throughput dose response assay to identify activators of Transthyretin (TTR) transcription.; type: functional
[7] = Luminescence Cell-Based Dose Retest to Confirm Inhibitors of Cancer Stem Cells. [Related pubchem assays (depositor defined):AID2717, AID2721]; type: functional; conditions: Homo sapiens
[8] = microbe, parasite or virus in culture; type: functional; conditions: Mycobacterium tuberculosis
[9] = potency of ADAM10 substrate cleavage blockers – biochemical, QFRET, dose response (AID 743254);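 also: ADAM10 enzyme with the DM2 quenched FRET peptide as substrate; EDANS fluorescence gain as the protease cuts the substrate; inhibitor potency against ADAM10 proteolytic activity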
[10] = molecular target: Disintegrin and metalloproteinase domain-containing protein 17 (Homo sapiens, UniProt P78536); assay: inhibition of ADAM17 substrate cleavage – biochemical, quenched FRET substrate, counter-screen for ADAM10 exosite inhibitor project, dose response (AID 743253)
Sequence of Disintegrin and metalloproteinase domain-containing protein 17 (P78536 whole entry, the tested form may be a part): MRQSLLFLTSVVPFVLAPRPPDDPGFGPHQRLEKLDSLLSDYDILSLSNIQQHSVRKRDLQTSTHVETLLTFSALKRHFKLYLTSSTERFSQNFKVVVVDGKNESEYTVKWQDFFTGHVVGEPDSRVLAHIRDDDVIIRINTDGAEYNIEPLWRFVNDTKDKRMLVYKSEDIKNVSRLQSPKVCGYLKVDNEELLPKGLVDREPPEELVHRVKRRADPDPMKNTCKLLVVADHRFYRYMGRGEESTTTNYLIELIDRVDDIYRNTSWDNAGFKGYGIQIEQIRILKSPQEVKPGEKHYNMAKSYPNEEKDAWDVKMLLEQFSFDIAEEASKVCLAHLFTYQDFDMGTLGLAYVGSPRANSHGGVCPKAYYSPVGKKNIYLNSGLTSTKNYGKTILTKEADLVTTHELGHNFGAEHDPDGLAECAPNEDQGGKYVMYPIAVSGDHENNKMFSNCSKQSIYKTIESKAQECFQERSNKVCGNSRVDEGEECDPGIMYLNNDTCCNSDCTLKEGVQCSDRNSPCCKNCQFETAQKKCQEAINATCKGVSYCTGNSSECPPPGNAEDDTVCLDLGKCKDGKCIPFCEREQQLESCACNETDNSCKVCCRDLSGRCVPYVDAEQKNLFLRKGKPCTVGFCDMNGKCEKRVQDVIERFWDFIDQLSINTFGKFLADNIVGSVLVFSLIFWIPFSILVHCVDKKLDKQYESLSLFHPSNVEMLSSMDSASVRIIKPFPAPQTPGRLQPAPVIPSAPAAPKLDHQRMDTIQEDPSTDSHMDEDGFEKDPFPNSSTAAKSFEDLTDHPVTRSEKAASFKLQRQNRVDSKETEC

[11] = molecular target: T3, Trace amine-associated receptor 1 (Homo sapiens, UniProt Q96RJ0); assay: Fluorescence-based cell-based high throughput dose response assay to identify agonists of the human trace amine associated receptor 1 (TAAR1).; type: functional
T3 sequence (Q96RJ0 whole entry): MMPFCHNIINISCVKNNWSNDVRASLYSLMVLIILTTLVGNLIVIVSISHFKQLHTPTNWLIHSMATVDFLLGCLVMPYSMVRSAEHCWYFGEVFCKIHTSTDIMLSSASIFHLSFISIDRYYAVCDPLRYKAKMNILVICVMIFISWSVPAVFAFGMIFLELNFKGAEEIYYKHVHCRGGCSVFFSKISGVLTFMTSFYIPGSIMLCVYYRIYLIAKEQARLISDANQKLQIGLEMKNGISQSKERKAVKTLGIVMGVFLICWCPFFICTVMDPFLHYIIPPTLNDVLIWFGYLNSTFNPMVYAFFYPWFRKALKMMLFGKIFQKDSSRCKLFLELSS

cells [12] = type: functional, cell-based
[13] = molecular target: T3, Trace amine-associated receptor 1; assay: Counterscreen for agonists of the human trace amine associated receptor 1 (hTAAR1): Fluorescence-based cell-based high throughput dose response assay to identify hTAAR1 agonist that also desensitize TAAR1 receptor response.; type: functional
cells [14] = type: functional, cell-based; remark: listed apart in the source
Kallikrein-7 = Kallikrein-7 (Homo sapiens, UniProt P49862); assay: Fluorescence Intensity-based biochemical primary high throughput dose response assay to identify activators of kallikrein-7 (K7) zymogen.
Sequence of Kallikrein-7 (P49862 whole entry): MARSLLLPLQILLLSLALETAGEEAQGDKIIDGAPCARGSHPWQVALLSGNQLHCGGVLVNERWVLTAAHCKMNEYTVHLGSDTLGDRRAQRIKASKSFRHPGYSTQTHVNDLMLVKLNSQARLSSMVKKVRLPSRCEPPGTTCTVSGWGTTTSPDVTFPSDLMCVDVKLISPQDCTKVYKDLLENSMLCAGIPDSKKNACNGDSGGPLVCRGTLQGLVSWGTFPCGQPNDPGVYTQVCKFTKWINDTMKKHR

[15] = Counterscreen for inhibitors of Trypanosoma brucei methionyl tRNA synthetase (MetRS): Luminescence-based cell-based high throughput dose response assay to identify compounds that are cytotoxic to Jurkat human T lymphocyte cells.; type: functional
[16] = Luminescence-based cell-based high throughput dose response assay to identify activators of the DAF-12 from the parasite S. stercoralis (ssDAF-12).; type: functional
[17] = molecular target: T4, Oxysterols receptor LXR-beta (Homo sapiens, UniProt P55055); assay: LXR agonists, Gal4 luciferase reporter, dose response, counter-screen for ssDAF-12 agonist project, cell-based, luminescence, HEK293, S. stercoralis campaign (AID 720737); type: functional; conditions: read-out: IC50 (the source's name)
T4 sequence (P55055 whole entry): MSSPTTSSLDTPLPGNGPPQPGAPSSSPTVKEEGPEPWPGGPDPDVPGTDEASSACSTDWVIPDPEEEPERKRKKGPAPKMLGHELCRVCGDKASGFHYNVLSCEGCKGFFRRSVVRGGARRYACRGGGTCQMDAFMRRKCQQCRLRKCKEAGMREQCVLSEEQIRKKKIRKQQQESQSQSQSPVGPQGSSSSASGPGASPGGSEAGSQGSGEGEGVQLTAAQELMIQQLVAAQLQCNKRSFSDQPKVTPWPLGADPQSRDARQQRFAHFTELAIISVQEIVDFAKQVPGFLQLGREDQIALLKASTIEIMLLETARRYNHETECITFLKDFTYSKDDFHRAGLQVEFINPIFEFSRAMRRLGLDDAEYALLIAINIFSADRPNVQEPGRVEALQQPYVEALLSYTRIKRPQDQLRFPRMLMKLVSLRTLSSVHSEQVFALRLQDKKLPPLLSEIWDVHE

[18] = IGROV1 cell killing – plate reader, dry powder samples, PAX8 inhibitor project, dose response (AID 743043); type: functional, cell-based; conditions: IGROV-1
[19] = OVCAR-3 cell viability loss – plate reader, dry powder samples, PAX8 inhibitor project, dose response (AID 743044); type: functional, cell-based
[20] = OVCAR8 cell viability loss – plate reader, dry powder samples, PAX8 project, dose response (AID 743197); type: functional, cell-based; conditions: OVCAR-8
Paired box protein Pax-8 = Paired box protein Pax-8 (Homo sapiens, UniProt Q06710); assay: PAX8 transcriptional activity inhibition in RMG-I – RMG-I cells, luciferase, cherry-pick, dose response (AID 687027); type: functional, cell-based;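 also: luciferase reporter driven by Pax8 target thyroperoxidase promoter measured by SteadyGlo luminescence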
Sequence of Paired box protein Pax-8 (Q06710 whole entry): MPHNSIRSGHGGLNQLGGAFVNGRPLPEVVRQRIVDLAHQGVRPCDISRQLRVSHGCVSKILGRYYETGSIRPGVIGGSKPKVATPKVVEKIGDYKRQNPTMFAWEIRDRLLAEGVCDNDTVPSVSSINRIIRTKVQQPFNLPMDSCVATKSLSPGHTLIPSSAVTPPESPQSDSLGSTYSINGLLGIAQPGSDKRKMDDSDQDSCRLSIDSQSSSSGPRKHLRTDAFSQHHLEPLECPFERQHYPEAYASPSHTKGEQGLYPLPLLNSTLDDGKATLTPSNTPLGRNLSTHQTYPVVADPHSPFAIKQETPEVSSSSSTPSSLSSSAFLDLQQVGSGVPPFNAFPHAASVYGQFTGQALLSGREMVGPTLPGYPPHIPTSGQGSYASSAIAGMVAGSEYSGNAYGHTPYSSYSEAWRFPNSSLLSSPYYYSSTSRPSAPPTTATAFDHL

[21] = general cell-killing toxicity readout – plate reader, dry powder samples, cytotoxicity control for PAX8 inhibitor project, dose response (AID 743021); type: functional, cell-based
[22] = viability loss in MITF-independent A375 cells – cell-based, CellTiter-Glo luminescence, dry powder, set 2, counter-screen for MITF inhibitor project, dose response (AID 624489); type: functional; conditions: A-375;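 also: actives are compounds lowering A375 viability meaning general cytotoxicity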
[23] = cytotoxicity in MITF-independent A375 cells – cell-based, CellTiter-Glo luminescence, dry powder, set 4, counter-screen for MITF inhibitor project, dose response (AID 624364); type: functional; conditions: A-375;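 also: A375 melanoma cells are MITF independent so this is a counter screen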

Sequence of 5-hydroxytryptamine receptor 1A (P08908 whole entry): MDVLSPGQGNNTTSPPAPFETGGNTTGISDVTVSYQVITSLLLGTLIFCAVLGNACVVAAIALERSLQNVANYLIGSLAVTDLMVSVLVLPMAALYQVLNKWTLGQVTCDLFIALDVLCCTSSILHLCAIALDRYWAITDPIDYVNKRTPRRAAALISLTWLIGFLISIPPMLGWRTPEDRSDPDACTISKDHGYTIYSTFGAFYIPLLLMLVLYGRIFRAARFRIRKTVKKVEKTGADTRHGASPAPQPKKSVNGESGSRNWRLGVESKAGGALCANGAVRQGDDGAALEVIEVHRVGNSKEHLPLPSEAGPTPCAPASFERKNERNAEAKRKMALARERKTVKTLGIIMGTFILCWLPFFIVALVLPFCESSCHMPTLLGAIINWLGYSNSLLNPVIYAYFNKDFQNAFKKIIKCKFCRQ

CC1CN(c2nnnn2-c2ccccc2)CC(C)O1 (configuration not stated)
EC50 [1]: > 50 µM (not active)

CSc1nc2ccc(NC(=O)C3CCCO3)cc2s1 (configuration not stated)
EC50 [1]: > 50 µM (not active)

NC(=O)c1c(NC(=O)CSc2nnc(-c3ccco3)n2-c2ccccc2)sc2c1CCC2
IC50 [2]: 10.6 µM (active)
IC50 [3]: > 64 µM (inactive)

CNC(=O)N(O)C1N(C)C(=O)N(CC(=O)OC)C1(C)C (configuration not stated)
EC50 (Troponin, cardiac muscle): > 71.5 µM (inactive)
IC50 [2]: > 100 µM (not active)

CCN1CCN(S(=O)(=O)c2ccc(Cl)c(C(=O)N(C)CCOc3ccc(Cl)cc3)c2)CC1
AC50 (Vero): 21.1 µM (active)

COc1cc(-c2cc(=O)c3c(O)c(OC)c(OC)cc3o2)cc(OC)c1O
IC50 [4]: > 80 µM (inactive)

O=C(CSc1nc2ncccc2[nH]1)Nc1ccc2c(c1)OCO2
IC50 [5]: 30.3 µM (inactive)
IC50 [6]: 81.6 µM (inactive)

Cc1c(C(=O)N2CCc3ccccc32)cnn1C
EC50 (Transthyretin): > 167 µM (inactive)

COc1ccc(C(=O)NC2CCCc3c2cnn3-c2cc(F)cc(F)c2)c(OC)c1OC (configuration not stated)
EC50 (Transthyretin): > 167 µM (inactive)

O=[N+]([O-])c1cccnc1N1CCC(c2cc(-c3cccc(C(F)(F)F)c3)[nH]n2)CC1
AC50 [7]: 2.87 µM (active)
CC50 [8]: 28.7 µM (active)
IC50 [9]: 12.7 µM (inactive)

O=[N+]([O-])c1cccnc1N1CCC(c2cc(-c3cccc(C(F)(F)F)c3)n[nH]2)CC1
IC50 [10]: > 69.5 µM (inactive)

COc1ccccc1CCNS(=O)(=O)CCNC(=O)c1ccc2c(c1)OCO2
EC50 [11]: 4.48 µM (active)
EC50 (cells [12]): > 29.9 µM (inactive)
IC50 [13]: 6.62 µM (active)
IC50 (cells [14]): > 29.9 µM (inactive)

COc1ccc(OC)c(/C=C/C(=O)N(C)CC(=O)Nc2ccc(N3CCOCC3)cc2)c1
EC50 (Kallikrein-7): > 69.5 µM (inactive)

COc1ccc(N2CCN(c3cc(C(=O)NC4CCCCC4)ncn3)CC2)cc1OC
AC50 (Vero): 29.7 µM (active)

O=C(NCc1nc2ccccc2[nH]1)C1=C[C@H](C2CCCCC2)C[C@H](OCCCCO)O1
IC50 [5]: 3.14 µM (active)
IC50 [6]: 5.64 µM (active)
IC50 [15]: 28.8 µM (inactive)

Cc1ccc(/C=N/Nc2nnc(Cl)c3ccccc23)cc1
IC50 [16]: > 67.5 µM (inactive)
EC50 [17]: > 67.5 µM (inactive)

CCCCC[C@@H](C)N1C[C@@H](COCc2ccccc2)Oc2cc(N3CC[C@H](O)C3)ccc2S1(=O)=O
IC50 [9]: 11.3 µM (inactive)
IC50 [10]: > 69.5 µM (inactive)

C[C@@H]1CN([C@H](C)CO)C(=O)c2cc(NC(=O)Nc3ccc4c(c3)OCO4)ccc2O[C@@H](C)CCCCO[C@H]1CN(C)Cc1ccc(C(F)(F)F)cc1
AC50 [18]: 12.8 µM (active)
AC50 [19]: 11.6 µM (active)
AC50 [20]: > 60 µM (inactive)
AC50 (Paired box protein Pax-8): 8.35 µM (active)

O=C(C[C@@H]1CC[C@H]2[C@@H](COC[C@@H](O)CN2Cc2cccc(F)c2)O1)NCC1CCCCC1
AC50 [21]: 61.8 µM (active)
AC50 (Paired box protein Pax-8): 34 µM (active)

c1ccc(Cc2cnc(N3CCNCC3)nc2)cc1
EC50 [11]: 7.24 µM (active)
EC50 (cells [12]): > 29.9 µM (inactive)
IC50 [13]: > 29.9 µM (inactive)
IC50 (cells [14]): > 29.9 µM (inactive)

C[C@@H]1CN([C@H](C)CO)C(=O)c2cc(NS(=O)(=O)c3ccc(Cl)cc3)ccc2O[C@@H](C)CCCCO[C@H]1CN(C)S(=O)(=O)c1ccc(F)cc1
AC50 [18]: 43.9 µM (active)
AC50 [20]: > 70 µM (inactive)
AC50 (Paired box protein Pax-8): 2.46 µM (active)

CCN(CC)CCCCNC1=C(Nc2ccccc2)C(=O)c2ccccc2C1=O
AC50 [22]: > 70 µM (inactive)
AC50 [23]: > 70 µM (inactive)

O=C(NC1=C(N2CCCCC2)C(=O)c2ccccc2C1=O)c1ccc(Br)cc1
AC50 [22]: 50.3 µM (active)
AC50 [23]: > 70 µM (inactive)

Cc1c(C(=O)O)c(O)cc2c1C(=O)c1c(O)c([C@@H]3O[C@H](CO)[C@@H](O)[C@H](O)[C@H]3O)c(O)c(O)c1C2=O [CARMINIC ACID]
IC50 [4]: 19.5 µM (active)
